Data: patent US7268152B2, “Glucocorticoid mimetics, methods of making them, pharmaceutical compositions, and uses thereof” (Boehringer Ingelheim Pharmaceuticals, Inc., priority 2002, dated 2007)

tested on: glucocorticoid receptor; assay: One or more of the above assays (GR binding and GR cell assays; not specified which); format: cell-based; conditions: in one or more of the above assays
Procedure: This assay uses fluorescence polarization (FP) to quantitate the ability of test compounds to compete with tetramethyl rhodamine (TAMRA)-labeled dexamethasone for binding to a human glucocorticoid receptor (GR) complex prepared from an insect expression system. The assay buffer was: 10 mM TES, 50 mM KCl, 20 mM Na2MoO4.2H2O, 1.5 mM EDTA, 0.04% w/v CHAPS, 10% v/v glycerol, 1 mM dithiothreitol, pH 7.4. Test compounds were dissolved to 1 mM in neat DMSO and then further diluted to 10×assay concentration in assay buffer supplemented with 10% v/v DMSO. Test compounds were serially diluted at 10×assay concentrations in 10% DMSO-containing buffer in 96-well polypropylene plates. […] Positive controls were reaction mixtures containing no test compound; negative controls (blanks) were reaction mixtures containing 0.7 μM to 2 μM dexamethasone. […] IC50 values were determined by iterative non-linear curve fitting of the FP signal data to a 4-parameter logistic equation.
B. Glucocorticoid Receptor Cell Assays
1. Induction of Aromatase in Fibroblasts (Cell Assay for Transactivation)
Dexamethasone, a synthetic ligand to the glucocorticoid receptor (GR), induces expression of aromatase in human foreskin fibroblast cells. The activity of aromatase is measured by the conversion of testosterone to estradiol in culture media.
On the day of the experiment, the media in the wells is replaced with fresh media. Cells are treated with test compounds to final concentrations of 10^−5 M to 10 ^−8 M, and testosterone to a final concentration of 300 ng/mL. Each well has a total volume of 100 μL. Samples are made in duplicates. Control wells include: (a) wells that receive testosterone only, and (b) wells that receive testosterone plus 2 μM of dexamethasone to provide maximum induction of aromatase. Plates are incubated at 37° C. overnight (15 to 18 hours), and supernatants are harvested at the end of incubation. […] The amount of estradiol is inversely proportional to the ELISA signals in each well. The extent of aromatase induction by test compounds is expressed as a relative percentage to dexamethasone. EC50 values of test compounds are derived by non-linear curve fitting.
2. Inhibition of IL-6 Production in Fibroblasts (Cell Assay for Transrepression)
Human foreskin fibroblast cells produce IL-6 in response to stimulation by pro-inflammatory cytokine IL-1.
On the next day, media in the wells is replaced with fresh media. Cells are treated with IL-1 (rhIL-1α, R&D Systems Cat. No. 200-LA) to a final concentration of 1 ng/mL, and with test compounds to final concentrations of 10 ^−5 M to 10 ^−8 M, in a total volume of 200 μL per well. Samples are done in duplicates. […] Positive control wells receive IL-1 only and represent maximum (or 100%) amount of IL-6 production. Plates are incubated at 37° C. overnight (15 to 18 hours), and supernatants are harvested at the end of incubation. IL-6 levels in the supernatants are determined by the ELISA kits for IL-6 (MedSystems Diagnostics GmbH, Vienna, Austria, Cat. No. BMS213TEN) according to manufacture's instructions. The extent of inhibition of IL-6 by test compounds is expressed in percentage relative to positive controls. IC50 values of test compounds are derived by non-linear curve fitting.
Evaluation of agonist or antagonist activity of compounds binding to the glucocorticoid receptor may be determined by any of the assays.
3. Modulation of Tyrosine Aminotransferase (TAT) Induction in Rat Hepatoma Cells
Testing of compounds for agonist or antagonist activity in induction of tyrosine aminotransferase (TAT) in rat hepatoma cells.
H4-II-E-C3 cells were incubated overnight in 96 well plates (20,000 cells/100 μL/well) in MEM medium containing 10% heat inactivated FBS and 1% nonessential amino acids. On the next day, cells were stimulated with the indicated concentrations of dexamethasone or test compound (dissolved in DMSO, final DMSO concentration 0.2%) for 18 hours. Control cells were treated with 0.2% DMSO.

Row | SMILES | activity as agonists of the glucocorticoid receptor function
1 | COc1ccc(F)cc1C(C)(C)CC(O)(Cc1ccc(C=O)cc1Cl)C(F)(F)F (stereo not shown) [3-Chloro-4-[4-(5-fluoro-2-methoxyphenyl)-2-hydroxy-4-methyl-2-trifluoromethylpentyl]benzaldehyde] | activity as agonists
2 | COc1ccc(F)cc1C(C)(C)CC(O)(Cc1ccc(CO)cc1Cl)C(F)(F)F (stereo not shown) [2-(2-Chloro-4-hydroxymethylbenzyl)-1,1,1-trifluoro-4-(5-fluoro-2-methoxyphenyl)-4-methylpentan-2-ol] | activity as agonists
3 | CC(C)(CC(O)(Cc1ccc(C#N)cc1Cl)C(F)(F)F)c1ccccc1 (stereo not shown) [3-Chloro-4-(2-hydroxy-4-methyl-4-phenyl-2-trifluoromethylpentyl)benzonitrile] | activity as agonists
4 | Cc1ccc(C(C)(C)CC(O)(Cc2ccc(C#N)cc2Cl)C(F)(F)F)cc1 (stereo not shown) [3-Chloro-4-(2-hydroxy-4-methyl-4-p-tolyl-2-trifluoromethylpentyl)benzonitrile] | activity as agonists
5 | CC(C)(CC(O)(Cc1ccc(C#N)cc1Cl)C(F)(F)F)c1cc(Br)cc2c1OCC2 (stereo not shown) [4-[4-(5-Bromo-2,3-dihydrobenzofuran-7-yl)-2-hydroxy-4-methyl-2-trifluoromethylpentyl]-3-chlorobenzonitrile] | activity as agonists
6 | COc1cccc(C(C)(C)CC(O)(Cc2ccc(C#N)cc2Cl)C(F)(F)F)c1 (stereo not shown) [3-Chloro-4-[2-hydroxy-4-(3-methoxyphenyl)-4-methyl-2-trifluoromethylpentyl]benzonitrile] | activity as agonists
7 | CC(C)(CC(O)(Cc1ccc(C(=O)C2CC2)cc1Cl)C1CC1)c1cccc2c1OCC2 (stereo not shown) [{3-Chloro-4-[2-cyclopropyl-4-(2,3-dihydrobenzofuran-7-yl)-2-hydroxy-4-methylpentyl]phenyl}cyclopropylmethanone] | activity as agonists
8 | Cc1cccc(C(C)(C)CC(O)(Cc2ccc(C#N)cc2Cl)C(F)(F)F)c1 (stereo not shown) [3-Chloro-4-(2-hydroxy-4-methyl-4-m-tolyl-2-trifluoromethylpentyl)benzonitrile] | activity as agonists
9 | CC(C)(CC(O)(Cc1ccc(C#N)cc1Cl)C1CC1)c1cccc2c1OCC2 (stereo not shown) [3-Chloro-4-[2-cyclopropyl-4-(2,3-dihydrobenzofuran-7-yl)-2-hydroxy-4-methylpentyl]benzonitrile] | activity as agonists
10 | N#Cc1ccc(CC(O)(CC2(c3cc(F)ccc3O)CC2)C(F)(F)F)c(Cl)c1 (stereo not shown) [3-Chloro-4-{3,3,3-trifluoro-2-[1-(5-fluoro-2-hydroxyphenyl)cyclopropylmethyl]-2-hydroxypropyl}benzonitrile] | activity as agonists
11 | CCc1cccc(C(C)(C)CC(O)(Cc2ccc(C#N)cc2Cl)C(F)(F)F)c1O (stereo not shown) [3-Chloro-4-[4-(3-ethyl-2-hydroxyphenyl)-2-hydroxy-4-methyl-2-trifluoromethylpentyl]benzonitrile] | activity as agonists
12 | CC(C)(CC(O)(Cc1ccc(C#N)cc1Cl)C(F)(F)F)c1ccc(F)cc1O (stereo not shown) [3-Chloro-4-[4-(4-fluoro-2-hydroxyphenyl)-2-hydroxy-4-methyl-2-trifluoromethylpentyl]benzonitrile] | activity as agonists
13 | COc1ccc(F)cc1C(C)(C)CC(O)(Cc1ccc(C#N)c2ccccc12)C(F)(F)F (stereo not shown) [4-[4-(5-Fluoro-2-methoxyphenyl)-2-hydroxy-4-methyl-2-trifluoromethylpentyl]naphthalene-1-carbonitrile] | activity as agonists
14 | COc1ccc(F)cc1C(C)(C)CC(O)(Cc1ccc(/C=N/O)cc1Cl)C(F)(F)F (stereo not shown) [3-Chloro-4-[4-(5-fluoro-2-methoxyphenyl)-2-hydroxy-4-methyl-2-trifluoromethylpentyl]benzaldehyde oxime] | activity as agonists
15 | Cc1cc(C)c(C#N)c(CC(O)(CC(C)(C)c2cc(F)ccc2O)C(F)(F)F)c1 (stereo not shown) [2-[4-(5-Fluoro-2-hydroxyphenyl)-2-hydroxy-4-methyl-2-trifluoromethylpentyl]-4,6-dimethylbenzonitrile] | activity as agonists
16 | COc1ccc(F)cc1C(C)(C)CC(O)(Cc1ccc(Cl)cc1)C(F)(F)F (stereo not shown) [2-(4-Chlorobenzyl)-1,1,1-trifluoro-4-(5-fluoro-2-methoxyphenyl)-4-methylpentan-2-ol] | activity as agonists
17 | CC(C)(CC(O)(Cc1ccc(C#N)cc1Cl)C(F)(F)F)c1cc(F)cc2c1OCC2 (stereo not shown) [3-Chloro-4-[4-(5-fluoro-2,3-dihydrobenzofuran-7-yl)-2-hydroxy-4-methyl-2-trifluoromethylpentyl]benzonitrile] | activity as agonists
18 | CC(C)(CC(O)(Cc1ccc(C#N)c2ccccc12)C(F)(F)F)c1cccc2c1OCC2 (stereo not shown) [4-[4-(2,3-Dihydrobenzofuran-7-yl)-2-hydroxy-4-methyl-2-trifluoromethylpentyl]naphthalene-1-carbonitrile] | activity as agonists
19 | COc1cc(F)c(Br)cc1C(C)(C)CC(O)(Cc1ccc(C#N)cc1Cl)C(F)(F)F (stereo not shown) [4-[4-(5-Bromo-4-fluoro-2-methoxyphenyl)-2-hydroxy-4-methyl-2-trifluoromethylpentyl]-3-chlorobenzonitrile] | activity as agonists
20 | N#Cc1ccc(CC(O)(CC2(c3cc(F)ccc3Cl)CCC2)C(F)(F)F)c(Cl)c1 (stereo not shown) [3-Chloro-4-{2-[1-(2-chloro-5-fluorophenyl)cyclobutylmethyl]-3,3,3-trifluoro-2-hydroxypropyl}benzonitrile] | activity as agonists
21 | CC(C)(CC(O)(Cc1cc(C(F)(F)F)cc(Cl)c1F)C(F)(F)F)c1cc([N+](=O)[O-])cc2c1OCC2 (stereo not shown) [2-(3-Chloro-2-fluoro-5-trifluoromethylbenzyl)-1,1,1-trifluoro-4-methyl-4-(5-nitro-2,3-dihydrobenzofuran-7-yl)pentan-2-ol] | activity as agonists
22 | Cc1cc2c(c(C(C)(C)CC(O)(Cc3ccc(C#N)cc3Cl)C(F)(F)F)c1)OCC2 (stereo not shown) [3-Chloro-4-[2-hydroxy-4-methyl-4-(5-methyl-2,3-dihydrobenzofuran-7-yl)-2-trifluoromethylpentyl]benzonitrile] | activity as agonists
23 | COc1cc(OC)cc(C(C)(C)CC(O)(Cc2ccc(C#N)cc2Cl)C(F)(F)F)c1 (stereo not shown) [3-Chloro-4-[4-(3,5-dimethoxyphenyl)-2-hydroxy-4-methyl-2-trifluoromethylpentyl]benzonitrile] | activity as agonists
24 | CC(C)(CC(O)(Cc1ccc(C#N)cc1Cl)C(F)(F)F)c1cc(F)ccc1O (stereo not shown) [3-Chloro-4-[4-(5-fluoro-2-hydroxyphenyl)-2-hydroxy-4-methyl-2-trifluoromethylpentyl]benzonitrile] | activity as agonists
25 | Cc1cc(CC(O)(CC(C)(C)c2cc(F)ccc2O)C(F)(F)F)cc(C)c1C#N (stereo not shown) [4-[4-(5-Fluoro-2-hydroxyphenyl)-2-hydroxy-4-methyl-2-trifluoromethylpentyl]-2,6-dimethylbenzonitrile] | activity as agonists
